Article PMC5296247 (European journal of medicinal chemistry, 2016)

How the values were obtained:
HG23 cells = experiment: Nonspecific cytotoxic effects in HG23 cells; type: cell-based; conditions: cytotoxic dose for 50% cell death (CC50), 1 to 100 μM, 48 h, CytoTox 96 kit and crystal violet staining, average of at least two determinations
NV 3CLpro = NV 3CLpro (Norwalk virus, UniProt Q83883); experiment: FRET protease assay, NV 3CLpro; type: biochemical; conditions: for Activity against NV 3CLpro and in cell based assays (in words): summary of Table 1; for Fold less active than compounds 13/25: n-pentyl chain versus m-chlorophenyl
Sequence of NV 3CLpro (Q83883 1101-1281): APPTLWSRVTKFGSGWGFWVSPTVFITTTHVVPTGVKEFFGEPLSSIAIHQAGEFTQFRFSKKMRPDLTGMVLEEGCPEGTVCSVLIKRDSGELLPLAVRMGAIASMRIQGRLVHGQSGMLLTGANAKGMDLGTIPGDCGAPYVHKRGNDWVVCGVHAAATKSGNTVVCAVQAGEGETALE

Row | Compound | TC50 (EC50) (HG23 cells) [µM] | also measured
1 | CC(C)C[C@@H]1NC(=O)OC(CCCc2ccccc2)CCCCCNC(=O)CC[C@@H](C=O)NC1=O (stereo partly drawn) [Compound 20, (4S, 7S)-4-Isobutyl-2,5,10-trioxo-17-(3-phenylpropyl)-1-oxa-3,6,11-triazacycloheptadecane-7-carbaldehyde] | 71.5 | –
2 | CC(C)C[C@@H]1NC(=O)OC(CCCc2ccccc2)CCCCCNC(=O)CC[C@@H](C(O)S(=O)(=O)[O-])NC1=O.[Na+] (stereo partly drawn) [Compound 28, Sodium hydroxyl ((4S, 7S)-4-isobutyl-2,5,10-trioxo-17-(3-phenylpropyl)-1-oxa-3,6,11-triazacycloheptadecan-7-yl) methanesulfonate] | 69.2 | –
3 | O=C[C@@H]1CCC(=O)NC/C=C/CCC(c2cccc(Cl)c2)OC(=O)N[C@@H](CC2CCCCC2)C(=O)N1 (stereo partly drawn) [Compound 24, (4S, 7S, E)-17-(3-Chlorophenyl)-4-(cyclohexylmethyl)-2,5,10-trioxo-1-oxa-3,6,11-triazacycloheptadec-13-ene-7-carbaldehyde] | 42.3 | –
4 | O=C[C@@H]1CCC(=O)NCCCCCC(c2cccc(Cl)c2)OC(=O)NC2(CCCCC2)C(=O)N1 (stereo partly drawn) [Compound 18, (20S)-10-(3-Chlorophenyl)-8,17,22-trioxo-9-oxa-7,16,21-triazaspiro[5.16]docosane-20-carbaldehyde] | 62.4 | Activity against NV 3CLpro and in cell based assays (in words) (NV 3CLpro): inactive
5 | C[C@@H]1NC(=O)OC(c2cccc(Cl)c2)CCCCCCNC(=O)CC[C@@H](C=O)NC1=O (stereo partly drawn) [Compound 17, (4S, 7S)-18-(3-Chlorophenyl)-4-methyl-2,5,10-trioxo-1-oxa-3,6,11-triazacyclooctadecane-7-carbaldehyde] | >100 | –
6 | CC(C)C[C@@H]1NC(=O)OC(c2cccc(Cl)c2)CCCCCCNC(=O)CC[C@@H](C=O)NC1=O (stereo partly drawn) [Compound 15, (4S, 7S)-18-(3-Chlorophenyl)-4-isobutyl-2,5,10-trioxo-1-oxa-3,6,11-triazacyclooctadecane-7-carbaldehyde] | 67.4 | –
7 | CC(C)C[C@@H]1NC(=O)OC(Cc2ccccc2)CCCCCNC(=O)CC[C@@H](C=O)NC1=O (stereo partly drawn) [Compound 12, (4S, 7S)-17-Benzyl-4-isobutyl-2,5,10-trioxo-1-oxa-3,6,11-triazacycloheptadecane-7-carbaldehyde] | >100 | –
8 | CC(C)C[C@@H]1NC(=O)OC(Cc2ccccc2)CC/C=C/CNC(=O)CC[C@@H](C=O)NC1=O (stereo partly drawn) [Compound 23, (4S, 7S, E)-17-Benzyl-4-isobutyl-2,5,10-trioxo-1-oxa-3,6,11-triazacycloheptadec-13-ene-7-carbaldehyde] | >100 | Fold more potent than compound 12 (NV 3CLpro; unsaturated linker versus saturated linker, Table 1): ~ 2 fold
9 | O=C[C@@H]1CCC(=O)NCCCCCC(c2cccc(Cl)c2)OC(=O)N[C@@H](CC2CCCCC2)C(=O)N1 (stereo partly drawn) [14(minor), (4S, 7S)-17-(3-Chlorophenyl)-4-(cyclohexylmethyl)-2,5,10-trioxo-1-oxa-3,6,11-triazacycloheptadecane-7-carbaldehyde] | 45.3 | –
10 | CC(C)C[C@@H]1NC(=O)OC(c2cccc(Cl)c2)CCCCCNC(=O)CC[C@@H](C(=O)C(=O)NC2CC2)NC1=O (stereo partly drawn) [Compound 31, 2-((4S, 7S)-17-(3-Chlorophenyl)-4-isobutyl-2,5,10-trioxo-1-oxa-3,6,11-triazacycloheptadecan-7-yl)-N-cyclopropyl-2-oxoacetamide] | 53.1 | –
11 | O=C[C@@H]1CCC(=O)NCCCCCCC(c2cccc(Cl)c2)OC(=O)NC2(CCCCC2)C(=O)N1 (stereo partly drawn) [Compound 19, (21S)-10-(3-Chlorophenyl)-8,18,23-trioxo-9-oxa-7,17,22-triazaspiro [5.17] tricosane-21-carbaldehyde] | 53.3 | Activity against NV 3CLpro and in cell based assays (in words) (NV 3CLpro): inactive
12 | CCCCCC1CCCCCNC(=O)CC[C@@H](C=O)NC(=O)[C@H](CC(C)C)NC(=O)O1 (stereo partly drawn) [Compound 21, (4S, 7S)-4-Isobutyl-2,5,10-trioxo-17-pentyl-1-oxa-3,6,11-triazacycloheptadecane-7-carbaldehyde] | 72.7 | Fold less active than compounds 13/25 (NV 3CLpro; Table 1): ~ 2 fold
13 | CC(C)C[C@@H]1NC(=O)OC(c2cccc(Cl)c2)CCCCCNC(=O)CC[C@@H](C=O)NC1=O (stereo partly drawn) [Compound 13, (4S, 7S)-17-(3-Chlorophenyl)-4-isobutyl-2,5,10-trioxo-1-oxa-3,6,11-triazacycloheptadecane-7-carbaldehyde] | >100 | –
14 | CC(C)C[C@@H]1NC(=O)OC(c2ccccc2)CCCCCNC(=O)CC[C@@H](C=O)NC1=O (stereo partly drawn) [Compound 11, (4S, 7S)-4-Isobutyl-2,5,10-trioxo-17-phenyl-1-oxa-3,6,11-triazacycloheptadecane-7-carbaldehyde] | >100 | –
15 | O=C[C@@H]1CCC(=O)NCCCCCC(c2cccc(Cl)c2)OC(=O)N[C@@H](CC2CCCCC2)C(=O)N1 (stereo partly drawn) [14(major), (4S, 7S)-17-(3-Chlorophenyl)-4-(cyclohexylmethyl)-2,5,10-trioxo-1-oxa-3,6,11-triazacycloheptadecane-7-carbaldehyde] | 62.4 | –
16 | CC(C)C[C@@H]1NC(=O)OC(c2cccc(Cl)c2)CCCCCONC(=O)CC[C@@H](C=O)NC1=O (single isomer, unassigned) [Compound 36B] | 73.8 | –
17 | CC(C)C[C@@H]1NC(=O)OC(c2cccc(Cl)c2)CCCCCONC(=O)CC[C@@H](C=O)NC1=O (single isomer, unassigned) [Compound 36A] | 68.3 | –
18 | O=C1CC[C@@H](C(O)S(=O)(=O)[O-])NC(=O)C2(CCCCC2)NC(=O)OC(c2cccc(Cl)c2)CCCCCN1.[Na+] (stereo partly drawn) [Compound 26, Sodium ((20S)-10-(3-chlorophenyl)-8,17,22-trioxo-9-oxa-7,16,21-triazaspiro [5.16]docosan-20-yl) (hydroxy) methanesulfonate] | 48.5 | Activity against NV 3CLpro and in cell based assays (in words) (NV 3CLpro): inactive
19 | CC(C)C[C@@H]1NC(=O)OC(c2cccc(Cl)c2)CCCCCNC(=O)CC[C@@H](C(O)S(=O)(=O)[O-])NC1=O.[Na+] (stereo partly drawn) [Compound 25, Sodium ((4S, 7S)-17-(3-chlorophenyl)-4-isobutyl-2,5,10-trioxo-1-oxa-3,6,11-triazacycloheptadecan-7-yl) (hydroxy) methanesulfonate] | >100 | –
20 | O=C1CC[C@@H](C(O)S(=O)(=O)[O-])NC(=O)C2(CCCCC2)NC(=O)OC(c2cccc(Cl)c2)CCCCCCN1.[Na+] (stereo partly drawn) [Compound 27, Sodium ((21S)-10-(3-chlorophenyl)-8,18,23-trioxo-9-oxa-7,17,22-triazaspiro[5.17]tricosan-21-yl) (hydroxy) methanesulfonate] | 46.6 | Activity against NV 3CLpro and in cell based assays (in words) (NV 3CLpro): inactive
21 | C[C@@H]1NC(=O)OC(c2cccc(Cl)c2)CCCCCNC(=O)CC[C@@H](C=O)NC1=O (stereo partly drawn) [Compound 16, (4S, 7S)-17-(3-Chlorophenyl)-4-methyl-2,5,10-trioxo-1-oxa-3,6,11-triazacycloheptadecane-7-carbaldehyde] | >100 | –
22 | CCCCCC1CCCCCNC(=O)CC[C@@H](C(O)S(=O)(=O)[O-])NC(=O)[C@H](CC(C)C)NC(=O)O1.[Na+] (stereo partly drawn) [Compound 29, Sodium hydroxyl ((4S, 7S)-4-isobutyl-2,5,10-trioxo-17-pentyl-1-oxa-3,6,11-triazacycloheptadecan-7-yl) methanesulfonate] | 78.5 | Fold less active than compounds 13/25 (NV 3CLpro; Table 1): ~ 2 fold
